Test results: patent US11014902B2, “MYC G-quadruplex stabilizing small molecules and their use” (The United States of America, as represented by the …, priority 2015, dated 2021)

Legend:
[1] = test system: c-MYC exon 1 transcription in CA46 cells; assay: Exon specific qPCR assay, exon 1; format: cell-based, human; details: 10 μM, up to 48 hours
Description: To confirm a G4 specific mechanism of action in cells, the CA46 Burkitt's Lymphoma line was used in an exon-specific assay, as previously reported (Boddupally, et al., J Med Chem 2012, 55, 6076). For most cell lines, 85-90% of c-Myc expression is controlled by the G4 located prior to exons 1 and 2 in the promoter. Furthermore, expression predominantly occurs following exon 2, due to a thousand-fold increase in transcription from this allele (Brown, et al., J Biol Chem 2011, 286, 41018). The CA46 Burkitt's Lymphoma cell line is an exception to this trend due to the existence of a chromosome (8:14) (Pelicci, et al., Proc Natl Acad Sci USA 1986, 83, 2984) translocation between exons 1 and 2, leaving exon 1 under G4 control. As a result, c-Myc expression from exon 2 is G4 independent (FIG. 3B). This renders the overall cell line resistant to G4-mediated c-Myc inhibition at the RNA and protein level, and proliferation should be uninhibited by G4-stabilizing agents.
CA46 cells were treated with ligands of interest or DMSO control at designated time points, washed in PBS, flash frozen, and RNA isolated using the Qiagen RNeasy Kit. RNA was quantified by NanoDrop, and 0.5 μg was reverse transcribed for use in qPCR. […]

[2] = Stability study in culture media (LC/MS); format: physicochemical; details: RPMI-1640, LC/MS, up to 72 h
Description: Having established the reversible binding of Compound 1 to quadruplex DNA and selective quadruplex-dependent silencing of c-Myc, one consideration that remained was the presence of a benzylaminophenol functional group in Compound 1. It has previously been reported that compounds containing this functional group can have the propensity to eject amines, form an o-quinone methide, and alkylate proteins (Weinert, et al., J Am Chem Soc 2006, 128, 11940; Herzig, et al., J Org Chem 2006, 71, 4130; McLean, et al., Bioorg Med Chem Lett 2009, 19, 6717). To assess whether Compound 1 was undergoing this reactivity, a small series of analogs was prepared. In FIG. 6C, compounds lacking the phenol or amino group were prepared and evaluated. […] Additionally, the stability of Compound 1 was evaluated (see FIG. 7). […] Additionally, the putative hydrolysis products arising from quinone methide formation were not observed at any time by LC/MS.
Compound 1 (10 μL of 1 mM DMSO solution) was added to 490 μL RPMI-1640 culture media. After 1 min, 25 h, 48 h, and 72 h, 100 μL of this solution was diluted into 100 μL acetonitrile. The mixture was centrifuged at 5500 rpm for 1 min and the supernatant was removed from the pellet. […]
Compound 1 (10 μL of 1 mM DMSO solution) was added to 490 μL RPMI-1640 culture media. […] The mass corresponding to Compound 1 (M+H^+=393) was extracted and the chromatogram evaluated. […]

[3] = test system: AMO1; assay: Multiple myeloma cell viability; format: cell-based; details: Homo sapiens
Procedure: (§1) Human multiple myeloma and Burkitt's Lymphoma cell lines L363, CA46, MM-1R, KMS-11, and MM-1S were cultured and authenticated as previously described (Simmons, et al., Molecular oncology 2014, 8, 261). All plasma derived cell lines were cultured in RPMI-1640 (2 mM L-glutamine, 10% fetal bovine serum (FBS), 100 U/ml penicillin, 100 μg/ml streptomycin: Gibco) and incubated at 37° C. with 5% CO2. Viability experiments were performed in quadruplicate on 96-well plates (Costar) at designated time and dose points. MTS reagent was then directly added, incubated at 37° C. for 90 min, and absorbance of MTS formazan was read at 500 nm on an Omega 640 spectrophotometer. Percentage cell viability was normalized to the absorbance of untreated (DMSO) wells. In the case of cells harvested for their protein or RNA, pellets were flash frozen and stored at −80° C. overnight prior to use.
(§2) Additional multiple myeloma cell lines were assayed for cell viability in the presence of Compound 23, and the following IC50 values were determined.

[4] = test system: ARD; assay: Multiple myeloma cell viability; format: cell-based
Procedure: as §1, §2

[5] = test system: JIM1; assay: Multiple myeloma cell viability; format: cell-based
Procedure: as §1, §2

[6] = test system: KMM1; assay: Multiple myeloma cell viability; format: cell-based; details: KMM-1
Procedure: as §1, §2

[7] = test system: KMS12PE; assay: Multiple myeloma cell viability; format: cell-based; details: Homo sapiens, KMS-12-PE
Procedure: as §1, §2

[8] = test system: KMS27; assay: Multiple myeloma cell viability; format: cell-based; details: KMS-27
Procedure: as §1, §2

[9] = test system: c-MYC expression in L363 xenograft tumors; assay: Pharmacodynamic evaluation in L363 subcutaneous xenografts (western blot); format: in vivo; details: single dose 19 mg/kg or 38 mg/kg IP; tumors harvested 2 and 8 hours; nude mice with L363 xenografts
Procedure: The capacity of Compound 23 to inhibit c-MYC expression in tumor was evaluated in nude mice bearing subcutaneous xenografts of the human multiple myeloma cell line L363. In this assay, tumors from two tumor-bearing mice were harvested 2 and 8 hours after a single dose of Compound 23 at 19 mg/kg or 38 mg/kg (administered IP).

| SMILES | transcription from exon 1 [1] | stability in culture media [2] | IC50 [3] [µM] | IC50 [4] [µM] | IC50 [5] [µM] | IC50 [6] [µM] | IC50 [7] [µM] | IC50 [8] [µM] | c-MYC expression levels in tumors compared to vehicle control tumors [9] |
| --- | --- | --- | --- | --- | --- | --- | --- | --- | --- |
| Cc1ccc(NC(=O)c2c(C)oc3ccc(O)c(CN4CCCCCC4)c23)cc1 [Compound 1] | sustained downregulation | persisted in culture media over a period of 72 h |  |  |  |  |  |  |  |
| Cc1oc2ccc(O)c(CN3CCCCCC3)c2c1C(=O)Nc1ccc(C(F)(F)F)cc1 [Compound 23] |  |  | 5.92 | 5.75 | 6.35 | 4.13 | 5.33 | 5.06 | decreased c-MYC expression levels |
